# Data from patent publication US12344610B2, “APOL1 inhibitors and methods of use” (Maze Therapeutics, Inc., priority 2022, dated 2025).
# Test system: human immortalized podocytes inducibly expressing APOL1 G2
# Assay: APOL1 G2 podocyte cell rescue assay (Example B4)
# Assay type: cell-based
# Settings: Homo sapiens, differentiated human podocytes, doxycycline-induced APOL1 G2, CellTiter-Glo; geometric mean of at least 2 runs; † = single run
# Summary of the method: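 Differentiated hTERT-immortalized podocytes (clone D10) with doxycycline-inducible C-terminally HiBiT-tagged APOL1 G2, 6,000 cells/well, treated with doxycycline plus 8-point 3-fold compound series (0.4% DMSO) for 95 h at 37 °C. Viability by CellTiter-Glo luminescence; EC50 as geometric mean of ≥2 runs, each in duplicate.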
row,SMILES,EC50
1,"Cc1nc2cc(OCCN3CCC4(CC3)C(=O)Nc3ccc(Cl)cc34)cc(C(F)(F)F)c2n1[C@H]1C[C@@](C)(O)C1 [Compound 442, 5-chloro-1′-[2-({2-methyl-1-[(cis)-3-hydroxy-3-methylcyclobutyl]-7-(trifluoromethyl)-1H-1,3-benzodiazol-5-yl}oxy)ethyl]-1,2-dihydrospiro[indole-3,4′-piperidin]-2-one]",1.16 nM
2,"C[C@]1(O)C[C@@H](n2c(=O)ccc3cc(OCCN4CCC5(CC4)C(=O)Nc4ccc(Cl)cc45)cnc32)C1 [Compound 323, 5-chloro-1′-[2-({7-oxo-8-[(cis)-3-hydroxy-3-methylcyclobutyl]-7,8-dihydro-1,8-naphthyridin-3-yl}oxy)ethyl]-1,2-dihydrospiro[indole-3,4′-piperidin]-2-one]",2.02 nM
3,"C[C@]1(O)C[C@@H](n2ncc3cc(OCCN4CCC5(CC4)C(=O)Nc4ccc(C#N)cc45)cc(C(F)(F)F)c32)C1 [Compound 465, 2-oxo-1′-[2-({1-[(cis)-3-hydroxy-3-methylcyclobutyl]-7-(trifluoromethyl)-1H-indazol-5-yl}oxy)ethyl]-1,2-dihydrospiro[indole-3,4′-piperidine]-5-carbonitrile]",1.22 nM
4,"O=C1Nc2ccc(Cl)cc2C12CCN(CCOc1cnc(N3CC4(CC(O)C4)C3)nc1)CC2 [Compound 396, 5-chloro-1′-{2-[(2-{6-hydroxy-2-azaspiro[3.3]heptan-2-yl}pyrimidin-5-yl)oxy]ethyl}-1,2-dihydrospiro[indole-3,4′-piperidin]-2-one]",18.6 nM
5,"Cc1nc2cc(OCCN3CCC4(CC3)C(=O)Nc3ccc(C#N)cc34)cc(C(F)(F)F)c2n1[C@H]1C[C@@](C)(O)C1 [Compound 443, 1′-[2-({2-methyl-1-[(cis)-3-hydroxy-3-methylcyclobutyl]-7-(trifluoromethyl)-1H-1,3-benzodiazol-5-yl}oxy)ethyl]-2-oxo-1,2-dihydrospiro[indole-3,4′-piperidine]-5-carbonitrile]",2.5 nM
6,"C[C@]1(O)C[C@@H](n2ncc3cc(OCCN4CCC5(CC4)C(=O)Nc4ccc(Cl)cc45)cnc32)C1 (single isomer, unassigned) [Compound 357, 5-chloro-1′-[2-({1-[(cis)-3-hydroxy-3-methylcyclobutyl]-1H-pyrazolo[3,4-b]pyridin-5-yl}oxy)ethyl]-1,2-dihydrospiro[indole-3,4′-piperidin]-2-one]",4.04 nM
7,"CS(=O)(=O)C1(c2ncc(OCCN3CCC4(CC3)C(=O)Nc3ccc(Cl)cc34)cn2)CC1 [Compound 4, 5-chloro-1′-(2-{[2-(1-methanesulfonylcyclopropyl)pyrimidin-5-yl]oxy}ethyl)-1,2-dihydrospiro[indole-3,4′-piperidin]-2-one]",9.16 nM
8,"CC(C)(O)c1ncc(OCCN2CCC3(CC2)C(=O)Nc2ccc(C#N)cc23)cc1C(F)(F)F [Compound 411, 1′-(2-{[6-(2-hydroxypropan-2-yl)-5-(trifluoromethyl)pyridin-3-yl]oxy}ethyl)-2-oxo-1,2-dihydrospiro[indole-3,4′-piperidine]-5-carbonitrile]",1.45 nM
9,"C[C@]1(O)C[C@@H](n2cc3cc(OCCN4CCC5(CC4)C(=O)Nc4ccc(C#N)cc45)cc(C(F)(F)F)c3n2)C1 [Compound 428, 2-oxo-1′-[2-({2-[(cis)-3-hydroxy-3-methylcyclobutyl]-7-(trifluoromethyl)-2H-indazol-5-yl}oxy)ethyl]-1,2-dihydrospiro[indole-3,4′-piperidine]-5-carbonitrile]",12.2 nM
10,"C[C@]1(O)C[C@@H](n2cnc3cc(OCCN4CCC5(CC4)C(=O)Nc4ccc(Cl)cc45)cc(F)c32)C1 [Compound 454, 5-chloro-1′-(2-((7-fluoro-1-((cis)-3-hydroxy-3-methylcyclobutyl)-1H-benzo[d]imidazol-5-yl)oxy)ethyl)spiro[indoline-3,4′-piperidin]-2-one]",4.34 nM
11,"C[C@]1(O)C[C@@H](n2ncc3cc(OCCN4CCC5(CC4)C(=O)Nc4ccc(Cl)cc45)cc(C(F)(F)F)c32)C1 [Compound 464, 5-chloro-1′-[2-({1-[(cis)-3-hydroxy-3-methylcyclobutyl]-7-(trifluoromethyl)-1H-indazol-5-yl}oxy)ethyl]-1,2-dihydrospiro[indole-3,4′-piperidin]-2-one]",0.659 nM
12,"C[C@]1(O)C[C@@H](n2nnc3cc(OCCN4CCC5(CC4)C(=O)Nc4ccc(Cl)cc45)cnc32)C1 [Compound 440, 5-chloro-1′-[2-({3-[(cis)-3-hydroxy-3-methylcyclobutyl]-3H-[1,2,3]triazolo[4,5-b]pyridin-6-yl}oxy)ethyl]-1,2-dihydrospiro[indole-3,4′-piperidin]-2-one]",15 nM
13,"C[C@]1(O)C[C@@H](n2c(=O)oc3cc(OCCN4CCC5(CC4)C(=O)Nc4ccc(Cl)cc45)cnc32)C1 [Compound 394, 5-chloro-1′-[2-({2-oxo-3-[(cis)-3-hydroxy-3-methylcyclobutyl]-2H,3H-[1,3]oxazolo[4,5-b]pyridin-6-yl}oxy)ethyl]-1,2-dihydrospiro[indole-3,4′-piperidin]-2-one]",16.9 nM
14,"CCC1(O)CN(c2ncc(OCCN3CCC4(CC3)C(=O)Nc3ccc(Cl)cc34)cn2)C1 [Compound 397, 5-chloro-1′-(2-{[2-(3-ethyl-3-hydroxyazetidin-1-yl)pyrinlidin-5-yl]oxy}ethyl)-1,2-dihydrospiro[indole-3,4′-piperidin]-2-one]",14.3 nM
15,"CC(CO)(c1ncc(OCCN2CCC3(CC2)C(=O)Nc2ccc(Cl)cc23)cc1C(F)(F)F)S(C)(=O)=O (stereo not shown) [Compound 401, 5-chloro-1′-(2-{[6-(1-hydroxy-2-methanesulfonylpropan-2-yl)-5-(trifluoromethyl)pyridin-3-yl]oxy}ethyl)-1,2-dihydrospiro[indole-3,4′-piperidin]-2-one]",4.62 nM
16,"C[C@]1(O)C[C@@H](n2ccc3cc(OCCN4CCC5(CC4)C(=O)Nc4ccc(Cl)cc45)cnc32)C1 [Compound 349, 5-chloro-1′-[2-({1-[(cis)-3-hydroxy-3-methylcyclobutyl]-1H-pyrrolo[2,3-b]pyridin-5-yl}oxy)ethyl]-1,2-dihydrospiro[indole-3,4′-piperidin]-2-one]",6.81 nM
17,"[2H]C([2H])(Oc1cnc2c(c1)CCC(=O)N2[C@H]1C[C@@](C)(O)C1)C([2H])([2H])N1CCC2(CC1)C(=O)Nc1ccc(Cl)cc12 [Compound 426, 5-chloro-1′-[2-({7-oxo-8-[(cis)-3-hydroxy-3-methylcyclobutyl]-5,6,7,8-tetrahydro-1,8-naphthyridin-3-yl}oxy)(1,1,2,2-^2H4)ethyl]-1,2-dihydrospiro[indole-3,4′-piperidin]-2-one]",4.1 nM
18,"C[C@]1(O)C[C@@H](n2nnc3cc(OCCN4CCC5(CC4)C(=O)Nc4ccc(Cl)cc45)cc(C(F)(F)F)c32)C1 [Compound 434, 5-chloro-1′-[2-({1-[(cis)-3-hydroxy-3-methylcyclobutyl]-7-(trifluoromethyl)-1H-1,2,3-benzotriazol-5-yl}oxy)ethyl]-1,2-dihydrospiro[indole-3,4′-piperidin]-2-one]",1.5 nM
19,"C[C@]1(O)C[C@@H](n2cc3cc(OCCN4CCC5(CC4)C(=O)Nc4ccc(Cl)cc45)cc(C(F)(F)F)c3n2)C1 [Compound 427, 5-chloro-1′-[2-({2-[(cis)-3-hydroxy-3-methylcyclobutyl]-7-(trifluoromethyl)-2H-indazol-5-yl}oxy)ethyl]-1,2-dihydrospiro[indole-3,4′-piperidin]-2-one]",1.95 nM
